From patent US12070452B2, “Compounds targeting HSP110 protein for cancer treatment” (INSERM (Institut National de la Santé et de la Recherche …, priority 2018, dated 2024) come the findings set out here.

The subject of the test is TMD8 human DLBCL cells. As to the kind of experiment: TMD8 DLBCL xenograft in immunodeficient mice, tumor growth. Format: in vivo. The note with it: 10 or 20 mg/kg intraperitoneally. As for the experimental part: FIG. 11A: Tumor volume monitoring of TMD8 human DLBCL cells grown in Immunodeficient mice treated intraperitoneally with the compound 52 (=inhibitor 52) at 10 or 20 mg/kg or with vehicle at the same frequency. (Abscissa: Days from 0 to 25 in day; Ordinate: Tumor volume in mm^3 from 0 to 4000 (scale 1000)).
FIG. 11B: Tumor weight monitoring of TMD8 human DLBCL cells grown in Immunodeficient mice treated intraperitoneally with the compound 52 (=inhibitor 52) at 10 or 20 mg/kg or with vehicle at the same frequency. (Abscissa: Treatments vehicle, 10 mg/kg or 20 mg/kg of compound 52; Ordinate: Tumor weight in g from 0 to 4 g (scale 1)).

Turning to `COc1cc(-c2cnc(-c3cnc(-c4cc(OC)c(OC)c(OC)c4)c(C)c3)c(/C=C/c3ccccc3)c2)cc(OC)c1OC` [compound 52, (E)-5′-Methyl-3-styryl-5,6′-bis(3,4,5-trimethoxyphenyl)-2,3′-bipyridine], the “tumor growth of xenografted DLBCL cell line” value is “reduced the tumor growth”.
